Data from publication PMC6874530, “Structural analysis identifies an escape route from the adverse lipogenic effects of liver X receptor ligands” (Communications Biology, 2019).
Read-outs that look alike come from different tables or passages of the source.

Key:
plasma triglycerides [1] = experiment: plasma TG induction in C57BL/6 mice vs plasma compound concentration (log-linear model); type: in vivo, mouse; conditions: for TG induction in plasma m (scaling factor) / TG induction in plasma C2, drug concentration corresponding to a twofold increase in TG levels: (% RSE); for TG induction in plasma Attributed class: mouse, in vivo
Protocol: Male C57BL/6JOlaHsd mice were retrieved from Harlan Laboratories (Horst, The Netherlands) around 7 weeks of age. […] Mice were given ad libitum access to water and standard rodent chow during the studies.
Compounds were given daily by oral gavage, 5 ml kg^−1, at doses ranging from 0.1 to 100 μmol kg^−1 of body weight for 4 days. Animals were terminated 3 h after the last dose.
(§1) At termination, the whole-blood volume was drawn from isoflurane-anesthetized mice via an incision in the carotid artery into EDTA blood tubes (S-Monovette®, EDTA KE/1.3 mL, Sarstedt, Nümbrecht, Germany or BD Microtainers®, Benton, Dickinson and Company, Franklin Lakes, New Jersey, USA). Blood samples were placed on ice and centrifuged within an hour (15 min, 2500 × g, 4 °C or 5 min, 16000 × g, 4 °C). The plasma was then dispensed in separate tubes and kept at −80 °C for later analysis of compound concentration and TG levels. For the analysis of intestinal Abca1 transcript levels, a 3–5-mm long segment of the duodenum was excised and cleared from any gut contents. Tissues were instantly snap frozen in liquid nitrogen and stored at −80 °C.
Plasma triglyceride levels were analyzed by using the Triglycerides/Glycerol Blanked reagent kit (Roche Diagnostics GMBH, Mannheim, Germany). Samples were measured on an ABX Pentra 400 instrument (Horiba Medical, Irvine, California, USA) or Cobas Mira plus instrument (Roche Diagnostics Corporation, Indianapolis, USA). […] Absorbance was measured by using a Tecan Infinite M200 plate reader (Tecan Austria GmbH, Salzburg, Austria).
About 25 µL of plasma was precipitated with 150 µL of cold acetonitrile containing 0.2% formic acid. […] Sample analysis was performed by using a reversed-phase high-pressure liquid chromatography system coupled to a Quattro Ultima triple-quadrupole mass spectrometer (Waters, UK). A rapid 2-min 4–90% (vol/vol) acetonitrile (containing 0.2% formic acid) gradient was used for chromatographic separation.
To rank the compounds, the drug concentration (C2) needed to generate a twofold increase in plasma TG was estimated by rearranging Eq. (2):3 C2=exp^2fold−BL−1/m^1/γ

Abca1 mRNA in intestine = experiment: intestinal Abca1 mRNA induction in C57BL/6 mice (Emax model); type: in vivo, mouse; conditions: for ED50: Mus musculus
Protocol: All procedures involving animals were conducted in accordance with accepted standards of good animal practice and approved by the respective local animal ethics committees (Gothenburg region Local Ethics Review Committee on Animal experiments and University of Virginia Animal Care and Use Committee). Male C57BL/6JOlaHsd mice were retrieved from Harlan Laboratories (Horst, The Netherlands) around 7 weeks of age. In the studies with BMS-852907, male 8-week C57BL/6J mice (Jackson Laboratories) were used. Mice were given ad libitum access to water and standard rodent chow during the studies.
Solid compounds were solubilized in PEG400/Ethanol/Solutol/Water solution (36.3/9.1/4.6/50%). Compounds were given daily by oral gavage, 5 ml kg^−1, at doses ranging from 0.1 to 100 μmol kg^−1 of body weight for 4 days. Animals were terminated 3 h after the last dose.
as §1
Snap-frozen intestinal tissues were quickly disrupted in QIAzol® (Qiagen, Hilden, Germany) or PureZOL™ (Bio-Rad Laboratories, Hercules, California, USA) by using a bead tissue homogenizer. Lysates were mixed with chloroform and centrifuged at 6000 × g for 15 min at 4 °C. Total RNA was purified from the upper aqueous phase on the ABI PRISM™ 6100 Nucleic Acid PrepStation (Applied Biosystems, Foster City, USA) or by using the RNeasy kit® (QIAGEN Sciences Inc., Germantown, Maryland, USA) including on-column DNase treatment by using the respective manufacturer’s protocol and reagents. Concentration of total RNA was determined on a NanoDrop™ ND-100 Spectrophotometer (Saveen Werner, Lögstrup, Sweden). The RNA templates were transferred to cDNA by reverse transcription by using the High-Capacity cDNA Reverse Transcription Kit (Applied Biosystems, Foster City, USA) according to the manufacturer’s protocol. Mouse ATP-binding cassette subfamily A member 1 (Abca1) was analyzed by using the forward primer 5′-[…]-3′, reverse primer 5′-[…]-3′, and the dual-labeled probe 5′-6FAM-[…]-TAMRA-3′. Mouse ribosomal protein large P0 (Rplp0, 36b4) was analyzed by using the forward primer 5′-[…]-3′, reverse primer 5′-[…]-3′, and the FAM-labeled probe 5′-[…]-TAMRA-3′. In the study with BMS-852907, RT-qPCR reactions were carried out in separate triplicate wells for Abca1 and Rplp0, respectively, by using 20 ng of cDNA template, 385 nM of the above-mentioned primers, and iQ™ SYBR Green Supermix (Bio-Rad, Hercules, California, USA) on a Bio-Rad MyiQ instrument (Bio-Rad, Hercules, California, USA). In the other studies, 400 nM Abca1 forward and reverse primers, 200 nM Abca1 probe, 200 nM Rplp0 forward and reverse primers, and 100 nM Rplp0 probe were mixed with 15 ng of cDNA template and TaqMan™ Gene Expression Master Mix (Applied Biosystems, Foster City, USA). The RT-qPCR reactions were performed on a 7500 Real-time PCR system (Applied Biosystems, Foster City, USA). Cycle threshold values (Ct) were retrieved from the instrument software. Relative changes in mRNA expression were calculated by using the comparative cycle method (2^−ΔΔCt). […]

plasma triglycerides [2] = tested on: plasma triglycerides; parameters: method as in van der Hoorn et al. 2011; conditions: AZ876 high dose 20 µmol·kg−1·day−1, GW3965 at a similar dose; ref van der Hoorn et al. 2011; cited from earlier work
[3] = po, read-out: Abca1 mRNA induction in intestine Attributed class
[4] = oral gavage daily for 4 days, C57BL/6 mice, (% RSE), read-out: Abca1 mRNA induction in intestine ED50

Structure (SMILES) | TG induction in plasma m (scaling factor) (plasma triglycerides [1]) | TG induction in plasma Attributed class (plasma triglycerides [1]) | TG induction in plasma C2, drug concentration corresponding to a twofold increase in TG levels (plasma triglycerides [1]) | class of intestinal Abca1 induction (Abca1 mRNA in intestine) | ED50 (Abca1 mRNA in intestine; [3]) [µmol/kg] | ED50 (Abca1 mRNA in intestine; [4]) [µmol/kg] | increase of plasma triglyceride levels (plasma triglycerides [2]) [%]
O=C(O)Cc1ccc(COc2cccc(-c3c(Cc4ccccc4)cnc4c(C(F)(F)F)cccc34)c2)cc1 [WAY-254011, reference compound] | 1.94 (4) | Lipogenic | 0.794 (8) μM | high ABCA1 | ≤ 11.3 | < 30 | 
CC(C)(C)N1C(=O)C(Nc2ccc(N3CCCCC3)cc2)=C(c2ccccc2)S1(=O)=O [AZ876] | 3.44 (49) | Lipogenic | 0.269 (93) μM |  | ≤ 11.3 | 0.956 | 110
